Assay results published in paper PMC10287566, “Signaling-specific inhibition of the CB1 receptor for cannabis use disorder: phase 1 and phase 2a randomized trials” (Nature Medicine, 2023).

Columns and labels:
[1] = GLP mutagenic and genotoxic studies (Ames, chromosome aberration, micronucleus); conditions: GLP in vitro and in vivo studies
Experimental: The dose of 816 µg per plate is approximately a concentration of 84 µM.
Human lymphocytes were taken from young (18–35 years old) healthy non-smoker individuals.
This assay was carried out both with and without metabolic activation using Aroclor 1254-induced S9 from rat livers (5%). In the test performed without metabolic activation, two treatment durations were studied: (1) 4 h + 16 h recovery period (short-term treatment) and (2) 20 h without recovery period (continuous treatment). In the test performed with metabolic activation, the treatment period of 4 h + 16 h recovery period with 5% S9 mix was used.
As a control for the genotoxicity induction, a single i.p. injection 24 h before sampling of the reference substance cyclophosphamide (CPA, Baxter, batch 5K044J in NaCl at 0.9% in distilled water, at a dose of 25 mg kg^−1 under a volume of 10 ml kg^−1) was used.

healthy volunteers = test: Phase 1 multiple-ascending-dose (MAD) study, safety
Experimental: Four single oral dose levels (0.2, 0.6, 2 and 6 mg) were given in the morning on day 1 in the SAD study, and three oral doses (0.6, 2 and 6 mg) were given in the morning of day 1 to day 7 in the MAD study, to independent dose cohorts. […] Each dose cohort comprised eight volunteers (six (5/1) active and two (1/1) placebo per dose level).
In the MAD study, each randomized participant received a single oral dose per day on days 1 through 7. […] As an approximation, plasma PK concentrations and parameters were presented for all participants as if occurring on day 7.
Participants were admitted to the research clinic at midday before dosing (day −1). In the SAD study, they remained in-house until day 8 for PK and PD samples and safety assessments. In the MAD study, participants remained in-house until day 14 and returned to the research facility on an outpatient basis to have PK and safety assessments at 216 h and 264 h (day 16 and day 18) after their last dose (day 7). Safety monitoring (physical examinations, vital sign measurements, 12-lead ECGs, clinical safety laboratory tests and AE monitoring) were performed throughout the studies. Psychometrics tests (Bond & Lader VAS, Addiction Research Center Inventory (49-item short form) (ARCI-49) and Profile of Mood States 65 self-report items (POMS-65)) and the Columbia-Suicide Severity Rating Scale (C-SSRS) test were performed at baseline, before dose and at 4 h and 24 h after dose on day 1 and day 7 (MAD study, only) and C-SSRS only at 24 h.
All participants who had AEs, whether considered associated with the use of the investigational product or not, were monitored for as long as needed to determine resolution.

Compound: COc1ccc(CO[C@H]2CC[C@@]3(C)C(=CC[C@H]4[C@@H]5CC[C@H](C(C)=O)[C@@]5(C)CC[C@@H]43)C2)cc1 [AEF0117, 3β-(4-methoxybenzyloxy)pregn-5-en-20-one]
- genotoxic or mutagenic activity [1]: did not show any genotoxic or mutagenic activity
- Number of TEAEs (healthy volunteers; 0.6 mg/d 7 d): 7 E
- Number of participants with a TEAE leading to discontinuation (healthy volunteers; 0.6 mg/d 7 d): 1 (16.7) n (%)
- Number of participants with an SAE (healthy volunteers; 0.6 mg/d 7 d): 0 n (%)
- Number of participants with at least one TEAE (healthy volunteers; 0.6 mg/d 7 d): 3 (50.0) n (%)
- Participants with TEAE: Mild (healthy volunteers; 0.6 mg/d 7 d): 2 (33.3) n (%)
- Participants with TEAE: Moderate (healthy volunteers; 0.6 mg/d 7 d): 1 (16.7) n (%)
- Participants with TEAE: Not related (healthy volunteers; 0.6 mg/d 7 d): 1 (16.7) n (%)
- Participants with TEAE: Related (healthy volunteers; 0.6 mg/d 7 d): 3 (50.0) n (%)
- Participants with TEAE: Severe (healthy volunteers; 0.6 mg/d 7 d): 0 n (%)
- TEAEs by SOC: Eye disorder (healthy volunteers; 0.6 mg/d 7 d): 0 n (%)
- TEAEs by SOC: Gastrointestinal disorders (healthy volunteers; 0.6 mg/d 7 d): 0 n (%)
- TEAEs by SOC: General disorders and administration site conditions (healthy volunteers; 0.6 mg/d 7 d): 1 (16.7) n (%)
- TEAEs by SOC: Investigations (healthy volunteers; 0.6 mg/d 7 d): 0 n (%)
- TEAEs by SOC: Metabolism and nutrition disorders (healthy volunteers; 0.6 mg/d 7 d): 1 (16.7) n (%)
- TEAEs by SOC: Nervous system disorders (healthy volunteers; 0.6 mg/d 7 d): 2 (33.3) n (%)
- TEAEs by SOC: Skin and subcutaneous tissue disorders (healthy volunteers; 0.6 mg/d 7 d): 1 (16.7) n (%)
- Number of TEAEs (healthy volunteers; 2 mg/d 7 d): 3 E
- Number of participants with a TEAE leading to discontinuation (healthy volunteers; 2 mg/d 7 d): 0 n (%)
- Number of participants with an SAE (healthy volunteers; 2 mg/d 7 d): 0 n (%)
- Number of participants with at least one TEAE (healthy volunteers; 2 mg/d 7 d): 2 (33.3) n (%)
- Participants with TEAE: Mild (healthy volunteers; 2 mg/d 7 d): 2 (33.3) n (%)
- Participants with TEAE: Moderate (healthy volunteers; 2 mg/d 7 d): 0 n (%)
- Participants with TEAE: Not related (healthy volunteers; 2 mg/d 7 d): 1 (16.7) n (%)
- Participants with TEAE: Severe (healthy volunteers; 2 mg/d 7 d): 0 n (%)
- TEAEs by SOC: Eye disorder (healthy volunteers; 2 mg/d 7 d): 0 n (%)
- TEAEs by SOC: Gastrointestinal disorders (healthy volunteers; 2 mg/d 7 d): 1 (16.7) n (%)
- TEAEs by SOC: General disorders and administration site conditions (healthy volunteers; 2 mg/d 7 d): 0 n (%)
- TEAEs by SOC: Investigations (healthy volunteers; 2 mg/d 7 d): 1 (16.7) n (%)
- TEAEs by SOC: Metabolism and nutrition disorders (healthy volunteers; 2 mg/d 7 d): 0 n (%)
- TEAEs by SOC: Nervous system disorders (healthy volunteers; 2 mg/d 7 d): 0 n (%)
- TEAEs by SOC: Skin and subcutaneous tissue disorders (healthy volunteers; 2 mg/d 7 d): 0 n (%)
- Number of TEAEs (healthy volunteers; 6 mg/d 7 d): 6 E
- Number of participants with a TEAE leading to discontinuation (healthy volunteers; 6 mg/d 7 d): 0 n (%)
- Number of participants with an SAE (healthy volunteers; 6 mg/d 7 d): 0 n (%)
- Number of participants with at least one TEAE (healthy volunteers; 6 mg/d 7 d): 2 (33.3) n (%)
- Participants with TEAE: Mild (healthy volunteers; 6 mg/d 7 d): 2 (33.3) n (%)
- Participants with TEAE: Moderate (healthy volunteers; 6 mg/d 7 d): 1 (16.7) n (%)
- Participants with TEAE: Not related (healthy volunteers; 6 mg/d 7 d): 2 (33.3) n (%)
- Participants with TEAE: Related (healthy volunteers; 6 mg/d 7 d): 2 (33.3) n (%)
- Participants with TEAE: Severe (healthy volunteers; 6 mg/d 7 d): 0 n (%)
- TEAEs by SOC: Eye disorder (healthy volunteers; 6 mg/d 7 d): 1 (16.7) n (%)
- TEAEs by SOC: Gastrointestinal disorders (healthy volunteers; 6 mg/d 7 d): 0 n (%)
- TEAEs by SOC: General disorders and administration site conditions (healthy volunteers; 6 mg/d 7 d): 1 (16.7) n (%)
- TEAEs by SOC: Investigations (healthy volunteers; 6 mg/d 7 d): 0 n (%)
- TEAEs by SOC: Metabolism and nutrition disorders (healthy volunteers; 6 mg/d 7 d): 0 n (%)
- TEAEs by SOC: Nervous system disorders (healthy volunteers; 6 mg/d 7 d): 2 (33.3) n (%)
- TEAEs by SOC: Skin and subcutaneous tissue disorders (healthy volunteers; 6 mg/d 7 d): 1 (16.7) n (%)
